According to patent US20070224593A1 (priority 2005, published 2007):

Experiments:
[1] = molecular target: scrapie-form prion protein (PrP-d) (Ovis aries, UniProt P23907); conditions: retropharyngeal lymph nodes of TSE+ sheep, ex vivo; 100 μM, 10 min, RT; λex approx. 370 nm, λem approx. 450 nm; TSE status confirmed by PrP-d immunohistochemistry
[2] = molecular target: non-amyloid or pre-amyloid PrP-d (Ovis aries, UniProt P23907); type: binding; conditions: such compounds were previously believed to associate only with classical amyloid PrP-d isoforms
non-amyloid or pre-amyloid PrP-d, sequence (P23907 25-233 limits assumed): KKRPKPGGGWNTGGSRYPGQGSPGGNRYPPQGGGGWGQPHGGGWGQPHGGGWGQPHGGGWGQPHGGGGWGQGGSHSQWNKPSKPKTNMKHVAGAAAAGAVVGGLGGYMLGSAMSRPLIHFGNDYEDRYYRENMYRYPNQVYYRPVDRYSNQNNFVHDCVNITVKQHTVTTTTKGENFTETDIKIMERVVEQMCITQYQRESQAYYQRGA

PrP-d = PrP-d (Ovis aries, UniProt P23907); type: binding; conditions: same section of unfixed lymphoid tissue from scrapie positive sheep
PrP-d, sequence (P23907 25-233 limits assumed): as above

scrapie-form prion protein (PrP-d), sequence (P23907 25-233 limits assumed): as above

Compound: 1,4-bis(4′-hydroxystyrl)-2-methoxybenzene [Me-X04]
- PrP-d detection and visualization by probe fluorescence [1]: detected and visualized
- Binding to non-amyloid or pre-amyloid PrP-d [2]: Binding

Compound: O=C(O)c1cc(C=Cc2ccc(C=Cc3ccc(O)c(C(=O)O)c3)cc2)ccc1O [X-34, 1,4-bis(3-carboxy-4-hydroxyphenylethenyl)-benzene]
- Correlation of probe imaging with antibody binding (immunohistochemistry, AEC) (PrP-d): colocalization of the X34 binding and the antibody binding
- Binding to non-amyloid or pre-amyloid PrP-d [2]: Binding
